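Grown in 96-well plates, cells were treated for 48 hours with each compound at five concentrations. Insufficient inhibition: endpoint recorded as highest concentration tested. At the GI50, growth is halved. TGI: concentration producing complete growth inhibition.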 Bounds are passed on as bounds.

Some test systems named below: SNB-75 CNS; HCC-2998 colon; OVCAR-4 ovarian; HCT-116 colon; U251 CNS; OVCAR-5 ovarian; HOP-62 NSCLC; TK-10 renal; M14 melanoma; A549 NSCLC.
Holding throughout (assay): growth of human tumour cells (NCI), 48 h

Regarding `Sc1ccc2ccccc2c1CNCc1ccccc1`, the TGI is 44.2 µM in the experiment with SNB-75 CNS; over 100 µM in the experiment with HCC-2998 colon; 40.6 µM in the experiment on OVCAR-4 ovarian; 33.4 µM in the experiment with HCT-116 colon; 30.8 µM in the experiment on U251 CNS; 34 µM in the experiment with OVCAR-5 ovarian. Further, the TGI is 34.9 µM in the experiment on HOP-62 NSCLC, over 100 µM in the experiment on TK-10 renal, 27.6 µM in the experiment with M14 melanoma and over 100 µM with A549 NSCLC.
Take `N.N.N.N.O=NN1CCCCCC1(P(=O)([O-])[O-])P(=O)([O-])[O-].[Pt+4].[Pt+4]`: the GI50 in the experiment with SNB-75 CNS, in the experiment with HCC-2998 colon, with OVCAR-4 ovarian, in the experiment with HCT-116 colon, with U251 CNS and in the experiment with OVCAR-5 ovarian was over 100 µM each time. For the same molecule, the GI50 in the experiment with HOP-62 NSCLC, with TK-10 renal, in the experiment with M14 melanoma and with A549 NSCLC was over 100 µM each time. For the same molecule, the TGI in the experiment on SNB-75 CNS, in the experiment on HCC-2998 colon, in the experiment with OVCAR-4 ovarian, in the experiment with HCT-116 colon, in the experiment on U251 CNS and in the experiment with OVCAR-5 ovarian was over 100 µM in each case. Besides, the TGI in the experiment with HOP-62 NSCLC, in the experiment with TK-10 renal, in the experiment on M14 melanoma and in the experiment on A549 NSCLC was over 100 µM each time.
Turning to `CCN(CC)CC.CCOc1ccc(NC(=O)N=C=[N-])cc1.[CH-]1CCCCC1.[CH-]1CCCCC1.[CH-]1CCCCC1.[Cl-].[Sn+4]`, the GI50 in the experiment on SNB-75 CNS was 0.0244 µM; with HCC-2998 colon, 0.0255 µM; in the experiment on OVCAR-4 ovarian it was 0.0446 µM; in the experiment on HCT-116 colon, 0.014 µM; in the experiment on U251 CNS it was 0.0261 µM; in the experiment on OVCAR-5 ovarian, 0.0427 µM. Moreover, the GI50 in the experiment with HOP-62 NSCLC was 0.122 µM; in the experiment with TK-10 renal it was 0.0458 µM; in the experiment with M14 melanoma it was 0.0264 µM; in the experiment with A549 NSCLC, 0.0331 µM. For the same molecule, the TGI in the experiment on SNB-75 CNS worked out at 0.108 µM; with HCC-2998 colon, 0.0669 µM; in the experiment on OVCAR-4 ovarian it was 0.139 µM; in the experiment on HCT-116 colon, 0.0289 µM; in the experiment on U251 CNS it was 0.0718 µM; in the experiment on OVCAR-5 ovarian it was 0.114 µM. In addition, the TGI in the experiment on HOP-62 NSCLC worked out at 0.234 µM; in the experiment on TK-10 renal, 0.116 µM; with M14 melanoma, 0.0727 µM; in the experiment on A549 NSCLC, 0.107 µM.
`CCOC(=O)C1(C#N)C(c2ccccc2)CC(O)(c2ccc([N+](=O)[O-])cc2)C(C(=O)c2ccc([N+](=O)[O-])cc2)C1c1ccccc1` (centres undefined): the TGI was 96.5 µM with SNB-75 CNS; over 100 µM with HCC-2998 colon; over 100 µM with OVCAR-4 ovarian; over 100 µM in the experiment on HCT-116 colon; over 100 µM in the experiment on U251 CNS; over 100 µM with OVCAR-5 ovarian. In addition, the TGI in the experiment with HOP-62 NSCLC, in the experiment with TK-10 renal, in the experiment on M14 melanoma and in the experiment with A549 NSCLC was over 100 µM in each case.
As to `COc1cc2c(F)nccc2cc1C(=O)N[C@@H](c1ccc(F)c(Cl)c1)[C@@H]1C[C@@H](O)CN1`, the GI50 in the experiment on SNB-75 CNS was 0.074 µM; with HCC-2998 colon, 0.875 µM; in the experiment with OVCAR-4 ovarian, 8.59 µM; with HCT-116 colon it was 3.31 µM; in the experiment with U251 CNS it was 1.49 µM; with OVCAR-5 ovarian it was 13.1 µM. Moreover, the GI50 was 7.09 µM in the experiment with HOP-62 NSCLC, 0.279 µM in the experiment on TK-10 renal, 10.5 µM in the experiment with M14 melanoma and 3.14 µM with A549 NSCLC. Also, the TGI in the experiment on SNB-75 CNS stood at 1.51 µM; with HCC-2998 colon it was 19.5 µM; in the experiment with OVCAR-4 ovarian it was 24.6 µM; in the experiment with HCT-116 colon, 17.2 µM; in the experiment on U251 CNS it was 17.8 µM; with OVCAR-5 ovarian, 45.6 µM. In addition, the TGI is 25.3 µM in the experiment on HOP-62 NSCLC, 14.1 µM in the experiment with TK-10 renal, 23.2 µM in the experiment on M14 melanoma and 39.6 µM in the experiment on A549 NSCLC.
Regarding `CCN1C(=O)N(CC)C2C1NN=c1s/c(=C\c3ccccc3F)c(=O)n12` (centres undefined), the GI50 in the experiment on SNB-75 CNS is 0.0133 µM; in the experiment on HCC-2998 colon, 0.0334 µM; in the experiment with OVCAR-4 ovarian, 0.0668 µM; with HCT-116 colon it was 0.0333 µM; with U251 CNS, 0.0354 µM; in the experiment on OVCAR-5 ovarian it was 0.0628 µM. Moreover, the GI50 is 0.0545 µM in the experiment on HOP-62 NSCLC, 1.68 µM with TK-10 renal, 0.0311 µM in the experiment on M14 melanoma and 0.0419 µM in the experiment with A549 NSCLC. The TGI was 0.0711 µM with SNB-75 CNS; over 58.8 µM in the experiment with HCC-2998 colon; over 100 µM in the experiment with OVCAR-4 ovarian; 14.3 µM with HCT-116 colon; over 100 µM in the experiment with U251 CNS; over 100 µM with OVCAR-5 ovarian. The TGI in the experiment with HOP-62 NSCLC is over 100 µM; with TK-10 renal, over 63.6 µM; in the experiment on M14 melanoma, over 100 µM; in the experiment with A549 NSCLC, over 100 µM.
Turning to `CC(C)N(C(=O)C1(C)CC1)C(C)C`, the TGI with SNB-75 CNS, with HCC-2998 colon, in the experiment on OVCAR-4 ovarian, with HCT-116 colon, in the experiment on U251 CNS and in the experiment on OVCAR-5 ovarian was over 100 µM in each case. The TGI in the experiment on HOP-62 NSCLC, in the experiment with M14 melanoma and in the experiment on A549 NSCLC was over 100 µM in each case.
As for `Cc1ccc(-n2c3nc(=O)n(C)c(=O)c-3nc3ccccc32)cc1`, the TGI in the experiment on SNB-75 CNS was found to be 39.7 µM; in the experiment with HCC-2998 colon, 20.6 µM; in the experiment on OVCAR-4 ovarian, 28.5 µM; with HCT-116 colon, 61.3 µM; in the experiment on U251 CNS, 39.8 µM; with OVCAR-5 ovarian it was 45.3 µM. In addition, the TGI with HOP-62 NSCLC was over 100 µM; in the experiment on TK-10 renal it was over 100 µM; in the experiment on M14 melanoma, 32.7 µM; with A549 NSCLC it was 30.2 µM.
Consider `CCC(=O)C1(c2ccccc2)CCN(C)CC1`, for which the TGI with SNB-75 CNS, in the experiment on HCC-2998 colon, in the experiment on OVCAR-4 ovarian, with HCT-116 colon, with U251 CNS and in the experiment on OVCAR-5 ovarian was over 100 µM in each case. The TGI with HOP-62 NSCLC, in the experiment on TK-10 renal, in the experiment with M14 melanoma and in the experiment on A549 NSCLC was over 100 µM each time.

Values taken from PubChem BioAssay (NCI).
